# Reference: patent US8835464B2, “Triazole compounds that modulate HSP90 activity” (Synta Pharmaceuticals Corp., priority 2006, dated 2014)
# Structures can show the parent of a compound that is named as a salt.
# Test system: Hsp90
# Assay: IC50 of compounds of the invention, Example B Method 2 (Tables 6-9)
# Assay type: cell-based, human
# Conditions: Table 7; Her2 degradation / inhibition of Hsp90; Method 2: MV-4-11 cells, 72 hours, Cell Counting Kit-8; read-out: IC50
row,Structure (SMILES),IC50 [nM]
1,"CC(C)c1cc(-c2nnc(Nc3ccccc3)n2-c2ccc3c(ccn3C)c2)c(O)cc1O [Compound 1a, 4-Isopropyl-6-[4-(1-methyl-1H-indol-5-yl)-5-phenylamino-4H-[1,2,4]triazol-3-yl]-benzene-1,3-diol]",1400
2,"CNc1nnc(-c2cc(C(C)C)c(O)cc2O)n1-c1ccc2c(ccn2C)c1 [Compound 2a, 4-Isopropyl-6-[4-(1-methyl-1H-indol-5-yl)-5-methylamino-4H-[1,2,4]triazol-3-yl]-benzene-1,3-diol]",3500
3,"CC(C)c1cc(-c2nnc(NCc3ccccc3)n2-c2ccc3c(ccn3C)c2)c(O)cc1O [Compound 3a, 4-Isopropyl-6-[4-(1-methyl-1H-indol-5-yl)-5-benzylamino-4H-[1,2,4]triazol-3-yl]-benzene-1,3-diol]",35000
4,"CC(C)c1cc(-c2nnc(Nc3ccc4ncccc4c3)n2-c2ccc3c(ccn3C)c2)c(O)cc1O [Compound 5a, 4-isopropyl-6-(4-(1-methyl-1H-indol-5-yl)-5-(quinolin-6-ylamino)-4H-1,2,4-triazol-3-yl)benzene-1,3-diol]",680
5,"CC(C)c1cc(-c2nnc(Nc3cccc(N)c3)n2-c2ccc3c(ccn3C)c2)c(O)cc1O [Compound 6a, 4-(5-(3-aminophenylamino)-4-(1-methyl-1H-indol-5-yl)-4H-1,2,4-triazol-3-yl)-6-isopropylbenzene-1,3-diol]",2900
6,"CC(C)c1cc(-c2nnc(Nc3cccc(C(F)(F)F)c3)n2-c2ccc3c(ccn3C)c2)c(O)cc1O [Compound 7a, 4-isopropyl-6-(4-(1-methyl-1H-indol-5-yl)-5-(3-(trifluoromethyl)phenylamino)-4H-1,2,4-triazol-3-yl)benzene-1,3-diol]",> 5000
7,"COc1cccc(Nc2nnc(-c3cc(C(C)C)c(O)cc3O)n2-c2ccc3c(ccn3C)c2)c1 [Compound 8a, 4-isopropyl-6-(5-(3-methoxyphenylamino)-4-(1-methyl-1H-indol-5-yl)-4H-1,2,4-triazol-3-yl)benzene-1,3-diol]",1800

# Now from value to compound:
row,IC50 [nM],Structure (SMILES)
1,2600,"CC(C)c1cc(-c2nnc(NC(=O)c3ccccc3)n2-c2ccc3c(ccn3C)c2)c(O)cc1O [Compound 9a, N-(5-(2,4-dihydroxy-5-isopropylphenyl)-4-(1-methyl-1H-indol-5-yl)-4H-1,2,4-triazol-3-yl)benzamide]"
2,7860,"Cc1cc(C(=O)Nc2nnc(-c3cc(C(C)C)c(O)cc3O)n2-c2ccc3c(ccn3C)c2)no1 [Compound 10a, N-(5-(2,4-dihydroxy-5-isopropylphenyl)-4-(1-methyl-1H-indol-5-yl)-4H-1,2,4-triazol-3-yl)-5-methylisoxazole-3-carboxamide]"
3,382,"CC(=O)Nc1nnc(-c2cc(C(C)C)c(O)cc2O)n1-c1ccc2c(ccn2C)c1 [Compound 11a, N-(5-(2,4-dihydroxy-5-isopropylphenyl)-4-(1-methyl-1H-indol-5-yl)-4H-1,2,4-triazol-3-yl)acetamide]"
4,1400,"CCCC(=O)Nc1nnc(-c2cc(C(C)C)c(O)cc2O)n1-c1ccc2c(ccn2C)c1 [Compound 12a, N-(5-(2,4-dihydroxy-5-isopropylphenyl)-4-(1-methyl-1H-indol-5-yl)-4H-1,2,4-triazol-3-yl)butyramide]"
5,1800,"COCC(=O)Nc1nnc(-c2cc(C(C)C)c(O)cc2O)n1-c1ccc2c(ccn2C)c1 [Compound 13a, N-(5-(2,4-dihydroxy-5-isopropylphenyl)-4-(1-methyl-1H-indol-5-yl)-4H-1,2,4-triazol-3-yl)-2-methoxyacetamide]"

# Same assay, conditions: Table 8; Her2 degradation / inhibition of Hsp90; Method 2: MV-4-11 cells, 72 hours, Cell Counting Kit-8
row,Structure (SMILES),IC50 [nM]
1,"CCNC(=O)Sc1nnc(-c2ccc(OC(=O)N(C)C)cc2OC(=O)N(C)C)n1-c1cccc2ccccc12 [Compound 6b, 4-(5-(ethylcarbamoylthio)-4-(naphthalen-1-yl)-4H-1,2,4-triazol-3-yl)-1,3-phenylene bis(dimethyl carbamate)]",> 100000

# Same assay, conditions: Table 8; Her2 degradation / inhibition of Hsp90; Method 2: MV-4-11 cells, 72 hours, Cell Counting Kit-8; read-out: IC50
row,Structure (SMILES),IC50 [nM]
1,"CCc1cc(-c2nnc(S)n2-c2cccc3ccccc23)c(OC(=O)C(C)(C)C)cc1OC(=O)C(C)(C)C [Compound 3b, 4-ethyl-6-(5-mercapto-4-(naphthalen-1-yl)-4H-1,2,4-triazol-3-yl)-1,3-phenylene bis(2,2-dimethylpropanoate)]",> 2000
2,"CCc1cc(-c2nnc(S)n2-c2cccc3ccccc23)c(OC(=O)c2ccccc2)cc1OC(=O)c1ccccc1 [Compound 4b, 4-ethyl-6-(5-mercapto-4-(naphthalen-1-yl)-4H-1,2,4-triazol-3-yl)-1,3-phenylene dibenzoate]",> 2000
3,"COCCOc1ccc(-c2nnc(S)n2-c2cccc3ccccc23)c(O)c1 [Compound 5b, 2-(5-mercapto-4-(naphthalen-1-yl)-4H 1,2,4-triazol-3-yl)-5-(2-methoxyethoxy) phenol]",30000
4,"CC(C)c1cc(-c2nnc(SSc3nnc(-c4cc(C(C)C)c(O)cc4O)n3-c3ccc(N(C)C)cc3)n2-c2ccc(N(C)C)cc2)c(O)cc1O [Compound 7b, 6,6′-(5,6-disulfanediylbis(4-(4-(dimethylamino)phenyl)-4H-1,2,4-triazole-5,3-diyl))bis(4-isopropylbenzene-1,3-diol)]",58

# Results, then the compound that gave them:
row,IC50 [nM],Structure (SMILES)
1,40,"CC(=O)n1ccc2cc(-n3c(O)nnc3-c3cc(C(C)C)c(O)cc3O)ccc21 [Compound 9b, 1-(5-(3-(2,4-dihydroxy-5-isopropylphenyl)-5-hydroxy-4H-1,2,4-triazol-4-yl)-1H-indol-1-yl)ethanone]"
2,< 110,"CC(C)c1cc(-c2nnc(O)n2-c2ccc3c(ccn3C(=O)CCNC(=O)OC(C)(C)C)c2)c(O)cc1O [Compound 10b, tert-butyl 3-(5-(3-(2,4-dihydroxy-5-isopropylphenyl)-5-hydroxy-4H-1,2,4-triazol-4-yl)-1H-indol-1-yl)-3-oxopropylcarbamate]"
3,< 100,"COCCC(=O)n1ccc2cc(-n3c(O)nnc3-c3cc(C(C)C)c(O)cc3O)ccc21 [Compound 11b, 3-(2,4-dihydroxy-5-isopropylphenyl)-4-(1-(3-methoxypropanoyl)-1H-indol-5-yl)-1H-1,2,4-triazol-5(4H)-one]"
4,29,"CC(C)c1cc(-c2nn(COC(=O)C(N)C(C)C)c(=O)n2-c2ccc3c(ccn3C)c2)c(O)cc1O (centres unmarked) [Compound 12b, (3-(2,4-dihydroxy-5-isopropylphenyl)-4-(1-methyl-1H-indol-5-yl)-5-oxo-4,5-dihydro-1H-1,2,4-triazol-1-yl)methyl 2-amino-3-methylbutanoate]"

# Same assay, conditions: Table 9; Her2 degradation / inhibition of Hsp90; Method 2: MV-4-11 cells, 72 hours, Cell Counting Kit-8; dihydrochloride; read-out: IC50 Range
row,Structure (SMILES),IC50 [nM]
1,"CC(C)c1cc(-c2nnc(O)n2-c2ccc(N(C)C)nc2)c(O)cc1O [Compound 7d, 4-(4-(6-(dimethylamino)pyridin-3-yl)-5-hydroxy-4H-1,2,4-triazol-3-yl)-6-isopropylbenzene-1,3-diol dihydrochloride]",47
2,"CC(C)c1cc(-c2nnc(O)n2-c2ccc(N3CCN(C)CC3)nc2)c(O)cc1O [Compound 9d, 4-(5-hydroxy-4-(6-(4-methylpiperazin-1-yl)pyridin-3-yl)-4H-1,2,4-triazol-3-yl)-6-isopropylbenzene-1,3-diol dihydrochloride]",220

# Same assay, conditions: Table 9; Her2 degradation / inhibition of Hsp90; Method 2: MV-4-11 cells, 72 hours, Cell Counting Kit-8; read-out: IC50 Range
row,Structure (SMILES),IC50 [nM]
1,"COCCN(C)c1ccc(-n2c(O)nnc2-c2cc(C(C)C)c(O)cc2O)cn1 [Compound 1d, 4-(4-(6-(N-(2-methoxyethyl)-N-methylamino)pyridin-3-yl)-5-hydroxy-4H-1,2,4-triazol-3-yl)-6-isopropylbenzene-1,3-diol]",30
2,"COC(CN(C)c1ccc(-n2c(O)nnc2-c2cc(C(C)C)c(O)cc2O)cn1)OC [Compound 2d, 4-(4-(6-(N-(2,2-dimethoxyethyl)-N-methylamino)pyridin-3-yl)-5-hydroxy-4H-1,2,4-triazol-3-yl)-6-isopropylbenzene-1,3-diol]",107
3,"CC(C)c1cc(-c2nnc(O)n2-c2ccc(N(C)CC(=O)O)nc2)c(O)cc1O [Compound 4d, 2-(N-(5-(3-(2,4-dihydroxy-5-isopropylphenyl)-5-oxo-1H-1,2,4-triazol-4(5H)-yl)pyridin-2-yl)-N-methylamino)acetic acid]",330
4,"CC(C)c1cc(-c2nnc(O)n2-c2ccc(N(C)CCN(C)C)nc2)c(O)cc1O [Compound 5d, 4-(4-(6-(N-(2-(dimethylamino)ethyl)-N-methylamino)pyridin-3-yl)-5-hydroxy-4H-1,2,4-triazol-3-yl)-6-isopropylbenzene-1,3-diol]",220
5,"CC(C)c1cc(-c2nnc(O)n2-c2ccc(N(C)C)nc2)c(O)cc1O [Compound 6d, 4-(4-(6-(dimethylamino)pyridin-3-yl)-5-hydroxy-4H-1,2,4-triazol-3-yl)-6-isopropylbenzene-1,3-diol]",58
6,"CC(C)c1cc(-c2nnc(O)n2-c2ccc(N3CCN(C)CC3)nc2)c(O)cc1O [Compound 8d, 4-(5-hydroxy-4-(6-(4-methylpiperazin-1-yl)pyridin-3-yl)-4H-1,2,4-triazol-3-yl)-6-isopropylbenzene-1,3-diol]",243

# The next lines start with the values.
row,IC50 [nM],Structure (SMILES)
1,> 330,"CC(C)c1cc(-c2nnc(O)n2-c2cccc(S(=O)(=O)N(C)CCN(C)C)c2)c(O)cc1O [Compound 10d, 3-(3-(2,4-dihydroxy-5-isopropylphenyl)-5-hydroxy-4H-1,2,4-triazol-4-yl)-N-(2-(dimethylamino)ethyl)-N-methylbenzenesulfonamide]"
2,93,"Cc1ccc(-n2c(O)nnc2-c2cc(C(C)C)c(O)cc2O)cc1S(=O)(=O)N(C)C [Compound 11d, 5-(3-(2,4-dihydroxy-5-isopropylphenyl)-5-hydroxy-4H-1,2,4-triazol-4-yl)-N,N,2-trimethylbenzenesulfonamide]"
3,336,"CC(C)c1cc(-c2nnc(O)n2-c2ccc(N(C)C)c(S(N)(=O)=O)c2)c(O)cc1O [Compound 12d, 5-(3-(2,4-dihydroxy-5-isopropylphenyl)-5-hydroxy-4H-1,2,4-triazol-4-yl)-2-(dimethylamino)benzene sulfonamide]"
